The source of these data is US20120157439A1, “RAF INHIBITOR COMPOUNDS AND METHODS OF USE THEREOF” (GENENTECH, INC., priority 2009, published 2012).

This assay deals with T1, V600E full-length B-Raf (Homo sapiens, UniProt P15056, V600E).
T1 construct: 1 μM FSBA-MEK and 20 nM V600E full-length B-Raf; made in house; host or cells: sf9 insect cells (baculovirus)
Put plainly: B-Raf IC50 Assay (B-RAF V600E inhibition assay, Example A). The assay is classed as biochemical. The source says:
Determining the activity of Raf in the sample is possible by a number of direct and indirect detection methods (US 2004/0082014). Activity of human recombinant B-Raf protein may be assessed in vitro by assay of the incorporation of radio labeled phosphate to recombinant MAP kinase (MEK), a known physiologic substrate of B-Raf, according to US 2004/0127496 and WO 03/022840. The activity/inhibition of V600E full-length B-Raf was estimated by measuring the incorporation of radio labeled phosphate from [γ-33P]ATP into FSBA-modified wild-type MEK (see Example A).
Activity of human recombinant B-Raf protein may be assessed in vitro by assay of the incorporation of radio labeled phosphate to recombinant MAP kinase (MEK), a known physiologic substrate of B-Raf, according to U.S. Patent Appl. Publication No. 2004/0127496 and WO 03/022840. Catalytically active human recombinant B-Raf protein is obtained by purification from sf9 insect cells infected with a human B-Raf recombinant baculovirus expression vector.
The activity/inhibition of V600E full-length B-Raf was estimated by measuring the incorporation of radio labeled phosphate from [γ-33P]ATP into FSBA-modified wild-type MEK. The […] assay mixtures contained 25 mM Na Pipes, pH 7.2, 100 mM KCl, 10 mM MgCl2, 5 mM β-glycerophosphate, 100 μM Na Vanadate, 4 μM ATP, 500 nCi [γ-33P]ATP, 1 μM FSBA-MEK and 20 nM V600E full-length B-Raf. Incubations were carried out at 22° C. in a Costar 3365 plate (Corning). Prior to the assay, the B-Raf and FSBA-MEK were preincubated together in assay buffer at 1.5× (20 μL of 30 nM and 1.5 μM, respectively) for 15 minutes, and the assay was initiated by the addition of 10 μL of […]. Following the 60-minute incubation, the assay mixtures were quenched by the addition of 100 μL of 25% TCA, the plate was mixed on a rotary shaker for 1 minute, and the product was captured on a Perkin-Elmer GF/B filter plate using a Tomtec Mach III Harvester. After sealing the bottom of the plate, 35 μL of Bio-Safe II (Research Products International) scintillation cocktail were added to each well and the plate was top-sealed and counted in a Topcount NXT (Packard).

Setting [1] is: B-Raf V600E assay of Example A: less than 100 nM, read-out: IC50.
The mark [2] stands for this setting: B-Raf V600E assay of Example A: less than about 1 μM, read-out: IC50.
The mark [3] stands for this setting: incorporation of radio labeled phosphate from [γ-33P]ATP into FSBA-modified wild-type MEK, 4 μM ATP, 20 nM V600E full-length B-Raf, 60-minute incubation, 22° C., read-out: BRAF V600E IC50.

Each structure is given as a SMILES string. Where two headings read alike, the source gives them in different places. A value given as a limit tells only on which side of the number the result lay.

T1 sequence (P15056 whole entry V600E): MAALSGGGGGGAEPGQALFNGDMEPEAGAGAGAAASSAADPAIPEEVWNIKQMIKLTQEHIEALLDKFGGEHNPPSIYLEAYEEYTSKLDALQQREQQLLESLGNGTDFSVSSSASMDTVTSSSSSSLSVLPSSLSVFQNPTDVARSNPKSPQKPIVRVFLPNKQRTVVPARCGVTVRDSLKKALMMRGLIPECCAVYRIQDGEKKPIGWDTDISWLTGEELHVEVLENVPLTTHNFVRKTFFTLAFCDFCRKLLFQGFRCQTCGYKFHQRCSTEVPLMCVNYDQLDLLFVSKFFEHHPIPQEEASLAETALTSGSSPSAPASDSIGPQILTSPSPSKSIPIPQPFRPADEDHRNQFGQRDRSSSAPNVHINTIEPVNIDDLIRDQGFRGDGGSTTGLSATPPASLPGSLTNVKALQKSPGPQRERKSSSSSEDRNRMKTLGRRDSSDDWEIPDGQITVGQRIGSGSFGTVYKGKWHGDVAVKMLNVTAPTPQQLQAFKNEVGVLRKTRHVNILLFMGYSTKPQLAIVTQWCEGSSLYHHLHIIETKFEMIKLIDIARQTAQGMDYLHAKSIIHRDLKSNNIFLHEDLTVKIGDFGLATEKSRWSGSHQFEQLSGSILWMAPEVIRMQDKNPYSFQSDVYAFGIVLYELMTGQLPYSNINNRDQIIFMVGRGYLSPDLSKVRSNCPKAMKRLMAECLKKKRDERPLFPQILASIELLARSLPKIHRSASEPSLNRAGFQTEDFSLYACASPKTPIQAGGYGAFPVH

A word on the IC50: it is the concentration that inhibits the measured activity by half. On to `CCCS(=O)(=O)Nc1ccc(Cl)c(NC(=O)c2csc3c(NC4CCC4)ncnc23)c1Cl` [Example 72, 4-Cyclobutyl-amino-thieno [3,2-d] pyrimidine-7-carboxylic acid [2,6-dichloro-3-(propane-1-sulfonyl-amino)-phenyl]-amide], for which the IC50 was less than 0.1 µM under setting [1], less than 1 µM under setting [2] and 0.0024 µM under setting [3].

As for `CCCS(=O)(=O)Nc1ccc(F)c(NC(=O)c2csc3c(CC)ncnc23)c1F` [Example 41, 4-Ethyl-thieno[3,2-d]pyrimidine-7-carboxylic acid [2,6-difluoro-3-(propane-1-sulfonylamino)-phenyl]-amide], the IC50 reads like this: under setting [2], less than 1 µM; under setting [3], 0.112 µM.

As for `Nc1ncnc2c(C(=O)Nc3c(F)ccc(NS(=O)(=O)CCCF)c3Cl)csc12` [Example 15, 4-Amino-thieno[3,2-d] pyrimidine-7-carboxylic acid [2-chloro-6-fluoro-3-(3-fluoro-propane-1-sulfonylamino)-phenyl]-amide], the IC50 is less than 0.1 µM under setting [1], less than 1 µM under setting [2] and 0.0002 µM under setting [3].

Take `CCCS(=O)(=O)Nc1ccc(F)c(NC(=O)c2csc3c(Nc4ccccn4)ncnc23)c1F` [Example 62, 4-(Pyridin-2-ylamino)-thieno[3,2-d] pyrimidine-7-carboxylic acid [2,6-difluoro-3-(propane-1-sulfonylamino)-phenyl]-amide]: the IC50 is, setting by setting: under setting [1], less than 0.1 µM; under setting [2], less than 1 µM; under setting [3], 0.0271 µM.

Regarding `CCCS(=O)(=O)Nc1ccc(Cl)c(NC(=O)c2csc3c(NOC)ncnc23)c1Cl` [Example 65, 4-Methoxyamino-thieno[3,2-d]pyrimidine-7-carboxylic acid [2,6-dichloro-3-(propane-1-sulfonylamino)-phenyl]amide], the half-inhibitory concentration (IC50) by setting is: under setting [1], less than 0.1 µM; under setting [2], less than 1 µM; under setting [3], 0.0012 µM.

As for `Nc1ncnc2c(C(=O)Nc3c(Cl)ccc(NS(=O)(=O)CCCF)c3F)nsc12` [Example 32, 7-Amino-isothiazolo[4,5-d]pyrimidine-3-carboxylic acid [6-chloro-2-fluoro-3-(3-fluoro-propane-1-sulfonylamino)-phenyl]-amide], the IC50 was less than 0.1 µM under setting [1], less than 1 µM under setting [2] and 0.00018 µM under setting [3].

Turning to `CCCS(=O)(=O)Nc1ccc(Cl)c(NC(=O)c2csc3c(NC4CCNCC4)ncnc23)c1Cl` [Example 79, 4-(Piperidin-4-ylamino)-thieno[3,2-d] pyrimidine-7-carboxylic acid [2,6-dichloro-3-(propane-1-sulfonyl-amino)-phenyl]amide], the IC50 by setting is: under setting [2], less than 1 µM; under setting [3], 0.159 µM.

As to `CCCS(=O)(=O)Nc1ccc(F)c(NC(=O)c2csc3c(NC4CC4)ncnc23)c1F` [Example 47], the IC50 under setting [1] was less than 0.1 µM, the IC50 under setting [2] was less than 1 µM and the 50% inhibitory concentration (IC50) under setting [3] was determined as 0.0047 µM.

Consider `CCCS(=O)(=O)Nc1ccc(F)c(NC(=O)c2csc3c(NCC4CC4)ncnc23)c1F` [Example 56, 4-(Cyclopropyl-methylamino)-thieno[3,2-d] pyrimidine-7-carboxylic acid [2,6-difluoro-3-(propane-1-sulfonylamino)-phenyl]-amide], for which the half-inhibitory concentration (IC50) reads like this: under setting [1], less than 0.1 µM; under setting [2], less than 1 µM; under setting [3], 0.0751 µM.

As for `CCCS(=O)(=O)Nc1cc(F)c(F)c(NC(=O)c2csc3c(NCCF)ncnc23)c1F` [Example 89, 4-(2-Fluoro-ethylamino)-thieno[3,2-d] pyrimidine-7-carboxylic acid [2,3,6-trifluoro-5-(propane-1-sulfonyl-amino)e-phenyl]-amid], the IC50 is less than 0.1 µM under setting [1], less than 1 µM under setting [2] and 0.0037 µM under setting [3].

Take `CCCS(=O)(=O)Nc1ccc(F)c(NC(=O)c2c[nH]c3cncnc23)c1F` [Example 113, 5H-Pyrrolo[3,2-d] pyrimidine-7-carboxylic acid [2,6-difluoro-3-(propane-1-sulfonylamino)-phenyl]-amide]: the IC50 was less than 1 µM under setting [2] and 0.353 µM under setting [3].

In the case of `CCCS(=O)(=O)Nc1ccc(F)c(NC(=O)c2csc3c(NCCO)ncnc23)c1F` [Example 59, 4-(2-Hydroxy-ethylamino)-thieno[3,2-d] pyrimidine-7-carboxylic acid [2,6-difluoro-3-(propane-1-sulfonylamino)-phenyl]-amide], the IC50 is, setting by setting: under setting [1], less than 0.1 µM; under setting [2], less than 1 µM; under setting [3], 0.0571 µM.

As to `CCCS(=O)(=O)Nc1ccc(Cl)c(NC(=O)c2csc3c(NC4CCCCC4)ncnc23)c1Cl` [Example 81, 4-Cyclohexyl-amino-thieno [3,2-d] pyrimidine-7-carboxylic acid [2,6-dichloro-3-(propane-1-sulfonyl-amino)-phenyl]-amide], the IC50 was less than 1 µM under setting [2] and 0.11 µM under setting [3].

`CCCS(=O)(=O)Nc1ccc(Cl)c(NC(=O)c2csc3c(NC4CN(C)C4)ncnc23)c1Cl` [Example 75, 4-(1-Methyl-azetidin-3-ylamino)-thieno[3,2-d] pyrimidine-7-carboxylic acid [2,6-dichloro-3-(propane-1-sulfonyl-amino)-phenyl]amide]: the IC50 under setting [3] was greater than 1 µM.

In the case of `CCCS(=O)(=O)Nc1ccc(F)c(NC(=O)c2nsc3c(N)ncnc23)c1F` [Example 30, 7-Amino-isothiazolo[4,5-d]pyrimidine-3-carboxylic acid [2,6-difluoro-3-(propane-1-sulfonylamino)-phenyl]-amide], the IC50 under setting [1] is less than 0.1 µM, the IC50 under setting [2] was less than 1 µM and the IC50 under setting [3] was 0.0012 µM.

As for `Nc1ncnc2c(C(=O)Nc3c(F)ccc(NS(=O)(=O)c4ccccc4)c3F)csc12` [Example 11, 4-Amino-thieno[3,2-d]pyrimidine-7-carboxylic acid (3-benzenesulfonylamino-2,6-difluoro-phenyl)-amide], the IC50 under setting [1] is less than 0.1 µM, the IC50 under setting [2] was less than 1 µM and the IC50 under setting [3] came out at 0.00089 µM.

Regarding `CCCS(=O)(=O)Nc1ccc(F)c(NC(=O)c2csc3cncnc23)c1F` [Example 108, Thieno[3,2-d]pyrimidine-7-carboxylic acid [2,6-difluoro-3-(propane-1-sulfonylamino)-phenyl]-amide], the IC50 is less than 1 µM under setting [2] and 0.288 µM under setting [3].

Turning to `CCCS(=O)(=O)Nc1ccc(F)c(NC(=O)c2c[nH]c3c(NC4CC4)ncnc23)c1F` [Example 104, 4-Cyclopropylamino-5H-pyrrolo[3,2-d]pyrimidine-7-carboxylic acid [2,6-difluoro-3-(propane-1-sulfonylamino)-phenyl]-amide], the IC50 under setting [1] is less than 0.1 µM, the IC50 under setting [2] was less than 1 µM and the IC50 under setting [3] is 0.0476 µM.

Turning to `CCCS(=O)(=O)Nc1ccc(F)c(NC(=O)c2csc3c(NC4CCC4)ncnc23)c1F` [Example 55, 4-Cyclobutyl-amino-thieno [3,2-d] pyrimidine-7-carboxylic acid [2,6-difluoro-3-(propane-1-sulfonylamino)-phenyl]-amide], the IC50 under setting [1] is less than 0.1 µM, the concentration for half-maximal inhibition (IC50) under setting [2] was less than 1 µM and the IC50 under setting [3] was found to be 0.0455 µM.

As for `CCCS(=O)(=O)Nc1cc(F)c(F)c(NC(=O)c2csc3c(NCC)ncnc23)c1F` [Example 85, 4-Ethylamino-thieno[3,2-d] pyrimidine-7-carboxylic acid [2,3,6-trifluoro-5-(propane-1-sulfonyl-amino)-phenyl]-amide], the IC50 is less than 0.1 µM under setting [1], less than 1 µM under setting [2] and 0.0051 µM under setting [3].

On to `CCCS(=O)(=O)Nc1ccc(Cl)c(NC(=O)c2csc3c(NC4CCOCC4)ncnc23)c1Cl` [Example 77, 4-(Tetrahydro-pyran-4-ylamino)-thieno[3,2-d] pyrimidine-7-carboxylic acid [2,6-dichloro-3-(propane-1-sulfonyl-amino)-phenyl]-amid], for which the IC50 runs as follows: under setting [1], less than 0.1 µM; under setting [2], less than 1 µM; under setting [3], 0.0775 µM.

Consider `CCCS(=O)(=O)Nc1ccc(F)c(NC(=O)c2csc3c(NCC(C)(C)C)ncnc23)c1F` [Example 58, 4-(2,2-Dimethyl-propylamino)-thieno[3,2-d] pyrimidine-7-carboxylic acid [2,6-difluoro-3-(propane-1-sulfonylamino)-phenyl]-amide], for which the IC50 reads like this: under setting [2], less than 1 µM; under setting [3], 0.902 µM.
